Data on three compounds can be found in patent publication US5367110A, “Transgenic plants overproducing threonine and lysine” (Yeda Research and Development Co. Ltd., priority 1990, dated 1994).

For orientation: inhibition means the share of the control response that was lost under treatment.

Experiment [1] has as its system nontransformed tobacco leaf AK. The experiment in a line: AK activity with lysine and/or threonine, leaf extracts of nontransformed tobacco. It counts as biochemical. To be noted: 10 mM lysine, threonine or both; nontransformed (wild type) tobacco leaf extract. The protocol:
(§1) Transgenic plants were screened for an elevated AK activity. AK activity was assayed in crude extracts from leaves of transgenic plants by the method of Black and Wright (Black, S., et al. (1955) J. Biol. Chem. 213: 27-38). Leaves from axenic tobacco plants grown on Nitsch minimal medium (Nitsch, J. P. (1969) Phytomorphology 19: 389-404) in Magenta boxes for about one month were homogenized with a mortar and pestle in an equal volume of cold 20 mM potassium phosphate buffer pH 7.0 containing 30 mM β-mercaptoethanol, 0.1 mM L-lysine, 0.1 mM L-threonine, 1 mM phenylmethylsulfonilfluoride and 0.5 mM leupeptin. Following 5 min centrifugation (16,000 .g, 4° C.) the supernatant was collected and its protein concentration was determined by the method of Bradford (Bradford, M. M. (1976) Anal. Biochem. 72: 248-254). Equal amounts of protein were then tested for AK activity. […] The reaction mixture was stopped by addition of 0.25 ml of a 1:1:1 mixture of 10% FeCl3 in 0.1M HCl, 3M HCl and 12% TCA, centrifuged and the optical absorbance of the supernatant at 490 nm was measured.
(§2) AK activity was measured in crude extracts prepared from tobacco leaves as above except that 10 mM lysine, threonine or both amino acids were present in the reaction mixture as indicated on the right. […]

The target of experiment [2] is T1, E. coli mutated, desensitized AK (Escherichia coli, UniProt P08660).
T1 construct: transgenic tobacco plant E-6, crude leaf extract
T1 sequence (P08660 2-449, change not shown): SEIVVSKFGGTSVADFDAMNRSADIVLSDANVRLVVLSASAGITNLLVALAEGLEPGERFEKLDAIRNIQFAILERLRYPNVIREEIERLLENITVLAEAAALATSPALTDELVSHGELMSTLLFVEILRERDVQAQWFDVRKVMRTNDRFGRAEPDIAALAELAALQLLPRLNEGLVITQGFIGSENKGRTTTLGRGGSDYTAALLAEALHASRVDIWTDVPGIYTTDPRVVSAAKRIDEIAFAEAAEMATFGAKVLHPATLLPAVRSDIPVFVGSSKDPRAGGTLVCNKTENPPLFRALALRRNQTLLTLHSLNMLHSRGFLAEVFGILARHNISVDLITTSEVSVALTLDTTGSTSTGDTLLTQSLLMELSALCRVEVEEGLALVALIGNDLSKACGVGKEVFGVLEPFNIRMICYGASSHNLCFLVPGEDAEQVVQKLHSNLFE
The experiment in a line: AK activity with lysine and/or threonine, leaf extracts of transgenic plant E-6. It counts as biochemical. The settings on record: 10 mM lysine, threonine or both; transgenic plant E-6 (mutant bacterial enzyme). The method, then: as §1, §2

Experiment [3] has as its system tobacco shoots (control and transgenic plant B-7). The experiment in a line: Resistance of tobacco shoots to aminoethylcysteine (AEC). The settings on record: 0.1 and 0.15 mM AEC in MS medium; transgenic B-7 (E. coli DHPS) vs control. The experiment is classed as in vivo. The protocol: To test whether the transgenic tobacco plants expressing the E. coli DHPS gene were more resistant to the lysine analog AEC compared to control nontransformed plants, shoots from control plants (FIG. 21, left) and from transgenic tobacco plant B-7 (FIG. 21, right) were dipped in MS medium containing 2 mg/l kinetin, 0.8 mg/l IAA and either 0, 0.1, 0.15 or 0.2 mM AEC.

Another experiment has as its target T2, DHPS (Nicotiana tabacum, UniProt Q42948).
T2 construct: from tissue; host or cells: leaves of nontransformed tobacco (crude extract)
T2 sequence (Q42948 34-359): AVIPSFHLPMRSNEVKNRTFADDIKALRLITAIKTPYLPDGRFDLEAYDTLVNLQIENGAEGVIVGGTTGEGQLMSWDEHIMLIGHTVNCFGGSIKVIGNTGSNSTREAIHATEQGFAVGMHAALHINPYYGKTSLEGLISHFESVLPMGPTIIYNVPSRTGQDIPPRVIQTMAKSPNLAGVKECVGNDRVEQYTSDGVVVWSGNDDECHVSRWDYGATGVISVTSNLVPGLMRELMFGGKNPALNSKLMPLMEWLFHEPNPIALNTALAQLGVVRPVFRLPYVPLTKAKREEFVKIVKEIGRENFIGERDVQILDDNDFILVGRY
The experiment in a line: DHPS activity (O-ABA assay) with increasing lysine, leaf extracts of control nontransformed tobacco. The experiment is classed as biochemical. The method, then: (§3) Transgenic plants were screened for an elevated DHPS activity. DHPS activity was assayed in crude extracts from leaves of transgenic plants by the O-amino-benzaldehyde (O-ABA) assay of Yugari and Gilvarg (Yugari Y. and Gilvarg C., (1965) J. Biol. Chem. 240: 4710-4716) with slight modifications. Leaves from axenic tobacco plants grown in culture were homogenized with a mortar and pestle in an equal volume of cold 100 mM Tris-HCl pH 7.5 containing 1 mM phenylmethylsulfonylfluoride and 0.5 μg/ml leupeptine. Following 5 min centrifugation (16,000 xg, 4° C.) the supernatant was collected and its protein concentration was determined by the method of Bradford.
(§4) DHPS activity was assayed as above but in the presence of increasing lysine concentrations. At each lysine concentration, DHPS activity is presented as a percentage of the activity in extracts with no lysine added (average of two plants for each transformation). (Control)--nontransformed plants; (Cytoplasm)--average DHPS activity of plants A-11 and A-22 containing the cytoplasmic-type E. coli DHPS; (Chloroplast)--average DHPS activity of plants B-7 and B-15 containing the chloroplastic-type E. coli DHPS. The elevated levels of DHPS activity in the transgenic plants clearly resulted from the expression of the E. coli enzyme in them. […] In contrast, the I50 for DHPS inhibition by lysine in the control nontransformed plants was 27 μM.

The subject of experiment [4] is E. coli DHPS. The experiment in a line: DHPS activity (O-ABA assay) with increasing lysine, leaf extracts of transgenic tobacco expressing E. coli DHPS. The experiment is classed as biochemical. To be noted: transgenic vs wild type/control plants. The protocol:
as §3, §4

For the next experiment, the system named is plant DHPSs. The settings on record: plant DHPS; read-out: I50 of plant DHPSs, lysine; cited from earlier work.
Experiment [5] concerns the target T3, E. coli DHPS (Escherichia coli, UniProt P0A6L2). To be noted: cited from earlier work.
For experiment [6], the target named is T3, E. coli DHPS. The experiment in a line: DHPS activity (O-ABA assay) with increasing lysine, leaf extracts of transgenic tobacco expressing E. coli DHPS. The experiment is classed as biochemical. Details: pea rbcS-3A chloroplast transit peptide (chloroplastic type only; absent in the cytoplasmic type) (N); expressed in transfected cells; host or cells: transgenic tobacco plants (crude leaf extract; A-11 and A-22 cytoplasmic type, B-7 and B-15 chloroplastic type). The protocol: as §3, §4

Entries after “also recorded” stand apart in the source; their conditions may differ. Like-named read-outs stand apart in the source and are kept apart here.

T3 sequence (P0A6L2 whole entry): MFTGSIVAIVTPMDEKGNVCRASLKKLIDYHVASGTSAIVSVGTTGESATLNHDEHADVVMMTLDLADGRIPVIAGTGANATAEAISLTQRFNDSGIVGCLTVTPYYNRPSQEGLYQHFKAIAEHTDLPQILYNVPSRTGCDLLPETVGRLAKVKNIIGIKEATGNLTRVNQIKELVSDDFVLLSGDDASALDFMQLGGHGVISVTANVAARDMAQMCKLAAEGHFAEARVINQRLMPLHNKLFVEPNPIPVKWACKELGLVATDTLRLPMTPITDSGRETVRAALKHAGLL

As to `C[C@@H](O)[C@H](N)C(=O)O` [threonine], the figures for the “inhibition of AK activity” value in experiment [1] and in experiment [2] were 70% and “completely resistant; also recorded: completely unaffected”, respectively.
Consider `NCCSC[C@H](N)C(=O)O` [AEC, S-(2-aminoethyl)-L-cysteine], for which the “growth of transgenic shoots compared with control in AEC medium” value in experiment [3] is reported as “the transgenic plant clearly grows better than the control; also recorded: much less sensitive”.
Consider `NCCCC[C@H](N)C(=O)O` [lysine], for which the IC50 at DHPS is 27 µM; in the experiment with plant DHPSs it was 10 to 50 µM; at E. coli DHPS [5] (read-out: I50 of E. coli DHPS, lysine, E. coli DHPS), approximately 1 mM; on E. coli DHPS [5] (read-out: of E. coli DHPS, lysine inhibition, E. coli DHPS (dapA)), 1 mM; at E. coli DHPS [6] (transgenic tobacco plants, crude leaf extract, read-out: I50 for DHPS inhibition by lysine) it was 1.6 mM. In addition, the “sensitivity of DHPS activity in transgenic plants to lysine inhibition compared with control plants” value in the experiment on E. coli DHPS [4] was “less sensitive to lysine inhibition; also recorded: much more resistant to feedback inhibition”. Besides, the “inhibition of AK activity” value in experiment [2] is listed as “completely resistant; also recorded: completely unaffected”. Besides, the inhibition at 1000 µM at E. coli DHPS [6] (1 mM lysine, read-out: inhibition of bacterial DHPS) was approximately 50%.
